Reference: PubChem BioAssay (NCI)
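GI50: concentration for 50% inhibition of growth. TGI denotes the concentration required for complete inhibition of growth.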

Columns and labels:
Assay in all cases: NCI tumour cell line growth inhibition, 384-well format; in the data active = GI50 below about 0.43 µM; inactive = the rest
786-0 renal = test system: 786-0 renal
A498 renal = test system: A498 renal
A549 NSCLC = test system: A549 NSCLC
ACHN renal = test system: ACHN renal
BT-549 breast = test system: BT-549 breast
CAKI-1 renal = test system: CAKI-1 renal
CCRF-CEM leukemia = test system: CCRF-CEM leukemia
COLO 205 colon = test system: COLO 205 colon
DU-145 prostate = test system: DU-145 prostate
EKVX NSCLC = test system: EKVX NSCLC
HCC-2998 colon = test system: HCC-2998 colon
HCT-116 colon = test system: HCT-116 colon
HCT-15 colon = test system: HCT-15 colon
HL-60(TB) leukemia = test system: HL-60(TB) leukemia
HOP-62 NSCLC = test system: HOP-62 NSCLC
HOP-92 NSCLC = test system: HOP-92 NSCLC
HS 578T breast = test system: HS 578T breast
HT29 colon = test system: HT29 colon
IGROV1 ovarian = test system: IGROV1 ovarian
K-562 leukemia = test system: K-562 leukemia
KM12 colon = test system: KM12 colon
LOX IMVI melanoma = test system: LOX IMVI melanoma
M14 melanoma = test system: M14 melanoma
MALME-3M melanoma = test system: MALME-3M melanoma
MDA-MB-231 breast = test system: MDA-MB-231 breast
MDA-MB-435 melanoma = test system: MDA-MB-435 melanoma
MDA-MB-468 breast = test system: MDA-MB-468 breast
MOLT-4 leukemia = test system: MOLT-4 leukemia
NCI-H226 lung = test system: NCI-H226 lung
NCI-H23 lung = test system: NCI-H23 lung
NCI-H322M lung = test system: NCI-H322M lung
NCI-H460 NSCLC = test system: NCI-H460 NSCLC
NCI-H522 lung = test system: NCI-H522 lung
NCI/ADR-RES ovarian = test system: NCI/ADR-RES ovarian
OVCAR-3 ovarian = test system: OVCAR-3 ovarian
OVCAR-4 ovarian = test system: OVCAR-4 ovarian
OVCAR-8 ovarian = test system: OVCAR-8 ovarian
PC-3 prostate = test system: PC-3 prostate
RPMI-8226 leukemia = test system: RPMI-8226 leukemia
RXF 393 renal = test system: RXF 393 renal
SF-268 CNS = test system: SF-268 CNS
SF-295 CNS = test system: SF-295 CNS
SF-539 CNS = test system: SF-539 CNS
SK-MEL-28 melanoma = test system: SK-MEL-28 melanoma
SK-MEL-5 melanoma = test system: SK-MEL-5 melanoma
SK-OV-3 ovarian = test system: SK-OV-3 ovarian
SN12C renal = test system: SN12C renal
SNB-19 CNS = test system: SNB-19 CNS
SNB-75 CNS = test system: SNB-75 CNS
SR leukemia = test system: SR leukemia
SW-620 colon = test system: SW-620 colon
T-47D breast = test system: T-47D breast
TK-10 renal = test system: TK-10 renal
U251 glioblastoma = test system: U251 glioblastoma
UACC-257 melanoma = test system: UACC-257 melanoma
UACC-62 melanoma = test system: UACC-62 melanoma
UO-31 renal = test system: UO-31 renal

CCC(Sc1nnc2c3ccccc3n(CC)c2n1)C(=O)Nc1ccccc1OC (centres undefined)
1.48 µM: TGI (HL-60(TB) leukemia)
79.7 µM: TGI (MOLT-4 leukemia)
inactive: GI50 ([…]-0 renal) > 100 µM | GI50 (A498 renal) 4.74 µM | GI50 (A549 NSCLC) 4.27 µM | GI50 (ACHN renal) > 100 µM | GI50 (BT-549 breast) > 100 µM | GI50 (CCRF-CEM leukemia) > 100 µM | GI50 (COLO 205 colon) > 100 µM | GI50 (DU-145 prostate) > 100 µM | GI50 (EKVX NSCLC) 0.547 µM | GI50 (HCC-2998 colon) > 100 µM | GI50 (HCT-116 colon) > 100 µM | GI50 (HCT-15 colon) 7.59 µM | GI50 (HL-60(TB) leukemia) 0.444 µM | GI50 (HOP-62 NSCLC) 3.56 µM | GI50 (HOP-92 NSCLC) > 100 µM | GI50 (HS 578T breast) > 100 µM | GI50 (HT29 colon) > 100 µM | GI50 (IGROV1 ovarian) > 100 µM | GI50 (K-562 leukemia) 7.45 µM | GI50 (KM12 colon) > 100 µM | GI50 (LOX IMVI melanoma) > 100 µM | GI50 (M14 melanoma) > 100 µM | GI50 (MALME-3M melanoma) > 100 µM | GI50 (MDA-MB-231 breast) > 100 µM | GI50 (MDA-MB-435 melanoma) > 100 µM | GI50 (MOLT-4 leukemia) 3.51 µM | GI50 (NCI-H226 lung) > 100 µM | GI50 (NCI-H23 lung) 1.67 µM | GI50 (NCI-H322M lung) 4.91 µM | GI50 (NCI-H460 NSCLC) > 100 µM | GI50 (NCI-H522 lung) > 100 µM | GI50 (NCI/ADR-RES ovarian) > 100 µM | GI50 (OVCAR-3 ovarian) 3.28 µM | GI50 (OVCAR-4 ovarian) > 100 µM | GI50 (OVCAR-8 ovarian) > 100 µM | GI50 (PC-3 prostate) > 100 µM | GI50 (RPMI-8226 leukemia) 0.451 µM | GI50 (RXF 393 renal) > 100 µM | GI50 (SF-268 CNS) > 100 µM | GI50 (SF-295 CNS) > 100 µM | GI50 (SF-539 CNS) > 100 µM | GI50 (SK-MEL-28 melanoma) > 100 µM | GI50 (SK-MEL-5 melanoma) 5.43 µM | GI50 (SK-OV-3 ovarian) > 100 µM | GI50 (SN12C renal) 1.18 µM | GI50 (SNB-19 CNS) > 100 µM | GI50 (SNB-75 CNS) > 100 µM | GI50 (SR leukemia) 3.3 µM | GI50 (SW-620 colon) > 100 µM | GI50 (T-47D breast) > 100 µM | GI50 (TK-10 renal) > 100 µM | GI50 (U251 glioblastoma) > 100 µM | GI50 (UACC-257 melanoma) > 100 µM | GI50 (UACC-62 melanoma) > 100 µM | GI50 (UO-31 renal) 3.74 µM
5.44 µM: TGI (EKVX NSCLC)
active: GI50 (CAKI-1 renal) 0.384 µM | GI50 (MDA-MB-468 breast) 0.229 µM
5.17 µM: TGI (SN12C renal)
2.65 µM: TGI (CAKI-1 renal)
5.23 µM: TGI (NCI-H23 lung)
0.475 µM: TGI (MDA-MB-468 breast)
1.92 µM: TGI (RPMI-8226 leukemia)
5.99 µM: TGI (SR leukemia)
> 100 µM: TGI (786-0 renal) | TGI (A498 renal) | TGI (A549 NSCLC) | TGI (ACHN renal) | TGI (BT-549 breast) | TGI (CCRF-CEM leukemia) | TGI (COLO 205 colon) | TGI (DU-145 prostate) | TGI (HCC-2998 colon) | TGI (HCT-116 colon) | TGI (HCT-15 colon) | TGI (HOP-62 NSCLC) | TGI (HOP-92 NSCLC) | TGI (HS 578T breast) | TGI (HT29 colon) | TGI (IGROV1 ovarian) | TGI (K-562 leukemia) | TGI (KM12 colon) | TGI (LOX IMVI melanoma) | TGI (M14 melanoma) | TGI (MALME-3M melanoma) | TGI (MDA-MB-231 breast) | TGI (MDA-MB-435 melanoma) | TGI (NCI-H226 lung) | TGI (NCI-H322M lung) | TGI (NCI-H460 NSCLC) | TGI (NCI-H522 lung) | TGI (NCI/ADR-RES ovarian) | TGI (OVCAR-3 ovarian) | TGI (OVCAR-4 ovarian) | TGI (OVCAR-8 ovarian) | TGI (PC-3 prostate) | TGI (RXF 393 renal) | TGI (SF-268 CNS) | TGI (SF-295 CNS) | TGI (SF-539 CNS) | TGI (SK-MEL-28 melanoma) | TGI (SK-MEL-5 melanoma) | TGI (SK-OV-3 ovarian) | TGI (SNB-19 CNS) | TGI (SNB-75 CNS) | TGI (SW-620 colon) | TGI (T-47D breast) | TGI (TK-10 renal) | TGI (U251 glioblastoma) | TGI (UACC-257 melanoma) | TGI (UACC-62 melanoma) | TGI (UO-31 renal)
